Test results taken from ChEMBL document CHEMBL1201862, “PubChem BioAssay data set” (2004).
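Tested at 5 concentrations; 48 h exposure; 96-well plates; endpoints linearly interpolated, else capped at highest concentration. GI50 is the concentration that inhibits growth by half.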 The source made the active and inactive calls. Cut-off read from the data, not from the text of the source: active = GI50 up to about 1.1 µM and inactive = higher.

Experiments:
Assay in all cases: growth of human tumour cells (NCI), 48 h
DU-145 = system: DU-145
OVCAR-5 = system: OVCAR-5
CCRF-CEM = system: CCRF-CEM
A549 = system: A549
SR = system: SR
A498 = system: A498
RXF 393 = system: RXF 393
UO-31 = system: UO-31
HCC 2998 = system: HCC 2998
Malme-3M = system: Malme-3M
HOP-92 = system: HOP-92
U-251 = system: U-251
M14 = system: M14
NCI-H522 = system: NCI-H522
KM12 = system: KM12
COLO 205 = system: COLO 205
NCI-H23 = system: NCI-H23
SF-268 = system: SF-268
SNB-75 = system: SNB-75
SK-MEL-5 = system: SK-MEL-5
TK-10 = system: TK-10
SF-539 = system: SF-539
SK-MEL-28 = system: SK-MEL-28
MOLT-4 = system: MOLT-4
MDA-MB-231 = system: MDA-MB-231
MDA-MB-435 = system: MDA-MB-435
OVCAR-3 = system: OVCAR-3
OVCAR-8 = system: OVCAR-8
SN12C = system: SN12C
NCI-H226 = system: NCI-H226
SK-OV-3 = system: SK-OV-3
PC-3 = system: PC-3
SNB-19 = system: SNB-19
SW-620 = system: SW-620
LOX IMVI = system: LOX IMVI
CAKI-1 = system: CAKI-1
UACC-62 = system: UACC-62
MCF7 = system: MCF7
OVCAR-4 = system: OVCAR-4
RPMI-8226 = system: RPMI-8226
SK-MEL-2 = system: SK-MEL-2
EKVX = system: EKVX
786-0 = system: 786-0
Hs-578T = system: Hs-578T
BT-549 = system: BT-549
HCT-15 = system: HCT-15
K562 = system: K562
HT-29 = system: HT-29
HOP-62 = system: HOP-62
SF-295 = system: SF-295
NCI/ADR-RES = system: NCI/ADR-RES
T47D = system: T47D
UACC-257 = system: UACC-257
ACHN = system: ACHN
HCT-116 = system: HCT-116
NCI-H460 = system: NCI-H460
HL-60 = system: HL-60
IGROV-1 = system: IGROV-1

Measured: GI50

CCOC(=O)c1c(N2CCOCC2)[nH]c(=O)c(C(c2ccc(N(C)C)cc2)c2c(O)c(C(=O)OCC)c(N3CCOCC3)[nH]c2=O)c1O
> 100 µM: HCT-15
inactive: DU-145 > 100 µM | OVCAR-5 > 100 µM | CCRF-CEM 54.2 µM | A549 > 100 µM | SR > 100 µM | A498 > 100 µM | RXF 393 > 100 µM | UO-31 > 100 µM | HCC 2998 > 100 µM | Malme-3M > 100 µM | HOP-92 > 100 µM | U-251 > 100 µM | M14 > 100 µM | NCI-H522 > 100 µM | KM12 > 100 µM | COLO 205 > 100 µM | NCI-H23 > 100 µM | SF-268 > 100 µM | SNB-75 > 100 µM | SK-MEL-5 > 100 µM | TK-10 > 100 µM | SF-539 > 100 µM | SK-MEL-28 > 100 µM | MOLT-4 > 100 µM | MDA-MB-231 > 100 µM | MDA-MB-435 > 100 µM | OVCAR-3 > 100 µM | OVCAR-8 > 100 µM | SN12C > 100 µM | NCI-H226 > 100 µM | SK-OV-3 > 100 µM | PC-3 > 100 µM | SNB-19 > 100 µM | SW-620 > 100 µM | LOX IMVI 59 µM | CAKI-1 > 100 µM | UACC-62 > 100 µM | MCF7 > 100 µM | OVCAR-4 > 100 µM | RPMI-8226 46.6 µM | SK-MEL-2 > 100 µM | EKVX > 100 µM | 786-0 > 100 µM | Hs-578T > 100 µM | BT-549 > 100 µM | K562 > 100 µM | HT-29 > 100 µM | HOP-62 > 100 µM | SF-295 > 100 µM | NCI/ADR-RES > 100 µM | T47D > 100 µM | UACC-257 > 100 µM | ACHN > 100 µM | HCT-116 > 100 µM | NCI-H460 > 100 µM

C1COC2SC3=C(SC(=C4SC5=C(SCCS5)S4)S3)SC2O1 (centres undefined)
inactive: DU-145 > 100 µM | OVCAR-5 > 100 µM | CCRF-CEM > 100 µM | A549 > 100 µM | SR 3.68 µM | HL-60 33.9 µM | A498 > 100 µM | RXF 393 > 100 µM | UO-31 > 100 µM | HCC 2998 > 100 µM | Malme-3M 13 µM | HOP-92 > 100 µM | U-251 > 100 µM | M14 94 µM | NCI-H522 31.8 µM | KM12 17.4 µM | COLO 205 > 100 µM | NCI-H23 > 100 µM | SF-268 > 100 µM | SNB-75 71.1 µM | SK-MEL-5 80.2 µM | TK-10 > 100 µM | SF-539 44 µM | SK-MEL-28 > 100 µM | MOLT-4 > 100 µM | MDA-MB-231 > 100 µM | MDA-MB-435 4.07 µM | OVCAR-3 > 100 µM | OVCAR-8 > 100 µM | SN12C > 100 µM | NCI-H226 > 100 µM | SK-OV-3 72.3 µM | PC-3 > 100 µM | SNB-19 > 100 µM | IGROV-1 77.6 µM | SW-620 68.7 µM | CAKI-1 > 100 µM | UACC-62 22 µM | MCF7 > 100 µM | OVCAR-4 31.3 µM | SK-MEL-2 > 100 µM | EKVX > 100 µM | 786-0 77.8 µM | Hs-578T 80.9 µM | BT-549 > 100 µM | K562 73.1 µM | HT-29 > 100 µM | HOP-62 > 100 µM | SF-295 36.7 µM | NCI/ADR-RES > 100 µM | T47D 60.4 µM | UACC-257 > 100 µM | ACHN > 100 µM | HCT-116 > 100 µM | NCI-H460 > 100 µM
8.49 µM: HCT-15

Cc1c2cccc-2ccc2c3ccccc3n(C(=O)c3ccc(Cl)cc3)c12
active: MCF7 0.479 µM
inactive: DU-145 > 100 µM | OVCAR-5 > 100 µM | CCRF-CEM > 57 µM | A549 > 100 µM | SR > 63.7 µM | HL-60 > 82.6 µM | A498 > 100 µM | RXF 393 > 100 µM | UO-31 > 100 µM | Malme-3M > 100 µM | HOP-92 > 100 µM | U-251 > 100 µM | M14 > 100 µM | NCI-H522 > 100 µM | KM12 26.7 µM | COLO 205 46.7 µM | NCI-H23 > 100 µM | SF-268 > 100 µM | SNB-75 > 100 µM | SK-MEL-5 > 100 µM | TK-10 > 100 µM | SF-539 > 100 µM | SK-MEL-28 > 100 µM | MOLT-4 > 85.5 µM | MDA-MB-231 > 100 µM | MDA-MB-435 > 100 µM | OVCAR-3 > 100 µM | OVCAR-8 > 100 µM | SN12C > 100 µM | NCI-H226 > 100 µM | SK-OV-3 > 100 µM | PC-3 > 100 µM | SNB-19 > 100 µM | IGROV-1 > 100 µM | SW-620 > 100 µM | LOX IMVI > 100 µM | CAKI-1 > 100 µM | UACC-62 > 100 µM | OVCAR-4 > 100 µM | RPMI-8226 45.1 µM | SK-MEL-2 > 100 µM | EKVX 34.1 µM | 786-0 > 100 µM | Hs-578T > 91.2 µM | BT-549 > 100 µM | K562 > 100 µM | HT-29 > 76.7 µM | HOP-62 > 100 µM | SF-295 > 100 µM | NCI/ADR-RES > 100 µM | T47D 1.39 µM | UACC-257 > 100 µM | ACHN > 100 µM | HCT-116 96.8 µM | NCI-H460 > 89.7 µM
10.6 µM: HCT-15
